Earlier results in US20050239875A1, “Derivatives of dihydronepetalactone and method for preparation” (priority 2003, published 2005).

Tested on: insect
Conditions: disclosed by Hallahan in WO 03/079786

CC1COC(=O)C2C(C)CCC12 (stereo not shown) [DHN, Dihydronepetalactone]
insect repellent performance compared with N,N-diethyl-m-toluamide (DEET): compares favorably
